Active and inactive are the calls of the source.
How the values were obtained:
[1] = target: DNA dC->dU-editing enzyme APOBEC-3G (Homo sapiens, UniProt Q9HC16); type: functional;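 further: Dose-response counterscreen measuring inhibition of APOBEC3G DNA deaminase activity, run while confirming APOBEC3A inhibitors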
[2] = target: Polyadenylate-binding protein 1 (Homo sapiens, UniProt P11940); assay: PABP poly(A) RNA binding inhibitors, primary screen, biochemical, fluorescence polarization, uHTS (AID 2014)
[3] = target: Eukaryotic translation initiation factor 4H (Homo sapiens, UniProt Q15056); assay: human eIF4H binding inhibitors, primary screen, translation initiation inhibitor project, biochemical, uHTS, fluorescence polarization (AID 2012)
[4] = target: DNA dC->dU-editing enzyme APOBEC-3A (Homo sapiens, UniProt P31941); assay: Dose Response confirmation of small molecule APOBEC3A DNA Deaminase Inhibitors via a fluorescence-based single-stranded DNA deaminase assay. [Related pubchem assays (depositor defined):AID493011, AID493024]; type: functional
[5] = LGR2 antagonists, dose response, cell-based, HEK293, CRE-luciferase reporter, cherry pick, set 2 (AID 743343); type: functional;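 further: transfected cells were stimulated with diluted bursicon conditioned medium after compound addition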
[6] = HepG2 cell cytotoxicity, dose response, cytotoxicity control, plate reader, cherry-pick, antagonist series (AID 743416); type: functional, cell-based
[7] = HEK293 cell cytotoxicity, dose response, cytotoxicity control, plate reader, cherry-picked samples (AID 743446); type: functional, cell-based
[8] = inhibitors of Bluetongue virus cytopathic effect, confirmation, arbovirus, BSR cells (AID 1250); type: functional;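 further: protection from viral cytopathic effect measured as cell viability by ATP luminescence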
[9] = MC4R antagonists, dose response, counter-screen for LGR2 antagonist project, cell-based, plate reader, cherry pick (AID 743444); type: functional;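 further: transfected HEK 293 cells stimulated with alpha-MSH peptide; potency of inhibitors of the alpha-MSH evoked signal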
Estrogen receptor [10] = target: T1, Estrogen receptor (Homo sapiens, UniProt P03372); assay: potentiators of ERα–SRC-1 coactivator binding, dose response, biochemical, TR-FRET, ERα LBD (AID 737)
T1 sequence (P03372 whole entry): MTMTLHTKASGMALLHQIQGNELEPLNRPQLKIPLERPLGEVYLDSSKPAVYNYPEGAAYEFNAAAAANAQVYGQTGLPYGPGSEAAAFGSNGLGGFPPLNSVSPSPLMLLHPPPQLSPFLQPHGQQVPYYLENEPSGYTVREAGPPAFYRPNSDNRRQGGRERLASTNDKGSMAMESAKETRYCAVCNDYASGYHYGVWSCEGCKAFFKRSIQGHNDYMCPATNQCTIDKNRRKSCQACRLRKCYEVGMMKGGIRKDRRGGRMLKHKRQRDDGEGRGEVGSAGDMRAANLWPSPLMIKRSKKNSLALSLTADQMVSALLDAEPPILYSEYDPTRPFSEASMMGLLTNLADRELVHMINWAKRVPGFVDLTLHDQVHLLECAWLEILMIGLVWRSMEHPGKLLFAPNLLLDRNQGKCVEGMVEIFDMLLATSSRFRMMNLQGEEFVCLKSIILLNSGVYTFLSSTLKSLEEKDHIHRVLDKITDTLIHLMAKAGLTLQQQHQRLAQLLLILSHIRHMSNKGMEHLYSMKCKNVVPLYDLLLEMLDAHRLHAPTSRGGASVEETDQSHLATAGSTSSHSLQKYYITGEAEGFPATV

Melanocortin receptor 4 = Melanocortin receptor 4 (Homo sapiens, UniProt P32245); type: functional, cell-based;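 further: Cell-based assay with luminescence read-out, confirmatory dose-response testing for agonist activity of biased ligands at MC4R; human U2OS cells with tagged receptor and beta-arrestin; potency of agonists that increase receptor coupling to beta-arrestin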
HeLa = assay: Cytotoxicity counterscreen assay for transcriptional activators of heat shock protein 70 (Hsp70). [Related pubchem assays: 1203, 1252 ]; type: functional; conditions: Homo sapiens
[11] = target: T2, Eukaryotic translation initiation factor 2-alpha kinase 3 (Homo sapiens, UniProt Q9NZJ5); assay: Counterscreen assay for PERK inhibitors: Dose response cell-based high throughput screening assay to measure inhibition of PERK at 6 hours. [Related pubchem assays: 1522, 1416 ]; type: functional
[12] = target: T2, Eukaryotic translation initiation factor 2-alpha kinase 3; assay: Dose response cell-based high-throughput screening assay to measure PERK inhibition. [Related pubchem assays: 1416 ]; type: functional
Estrogen receptor [13] = target: T1, Estrogen receptor; assay: ERα–SRC-3 coactivator interaction inhibitors, confirmation, orthogonal assay, biochemical, ELISA, streptavidin-HRP readout (AID 1079)
[14] = cytotoxicity dependent on PAX8, dose response, cell-based, plate reader, dry powder (AID 743049); type: functional
cells = type: functional, cell-based
[15] = ZM109 Env clade C HIV-1 fusion inhibitors, dose response, HeLa effector, CEM target cells, luciferase, cherry-pick (AID 652058); type: functional, cell-based
[16] = inhibitors of HIV Env-driven cell fusion, dose response, cherry-pick (AID 652057); type: functional, cell-based
[17] = PAX5 activity inhibitors, dose response, selectivity assay for PAX8 inhibitor project, cell-based, plate reader, dry powder samples (AID 743047); type: functional;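 further: HEK293 cells carrying a Pax5 driven CD19 promoter luciferase reporter; potency of inhibitors that lower reporter luminescence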
[18] = off-target signal loss in HeLa-CEM21 co-culture – HeLa F-luc CTL cells, cherry-picked, counter-screen for HIV-1 Env fusion inhibitor project, dose response (AID 652040); type: functional, cell-based;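 further: potency for signal decrease marking cytotoxic or nonspecific inhibition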
[19] = inhibitors of clade B AD8 Env fusion, dose response, cell-based, cherry-pick (AID 652062); type: functional;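 further: luciferase signal from cell-cell fusion driven by HIV-1 clade B AD8 Env; potency is for inhibitors of fusion seen as a drop in luminescence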
[20] = luciferase reporter signal reduction – luminescence, H4-C neuroglioblastoma cells, dose response (AID 2458); type: functional, cell-based;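 further: H4 neuroglioblastoma cells stably carrying a luciferase reporter gene fusion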
[21] = target: T3, Microphthalmia-associated transcription factor (Homo sapiens, UniProt O75030); assay: TRPM1 promoter luciferase signal decrease, dose response, MITF inhibitor project, cell-based, SK-MEL-5, cherry-picked, set 3 (AID 493073); type: functional
T3 sequence (O75030 whole entry): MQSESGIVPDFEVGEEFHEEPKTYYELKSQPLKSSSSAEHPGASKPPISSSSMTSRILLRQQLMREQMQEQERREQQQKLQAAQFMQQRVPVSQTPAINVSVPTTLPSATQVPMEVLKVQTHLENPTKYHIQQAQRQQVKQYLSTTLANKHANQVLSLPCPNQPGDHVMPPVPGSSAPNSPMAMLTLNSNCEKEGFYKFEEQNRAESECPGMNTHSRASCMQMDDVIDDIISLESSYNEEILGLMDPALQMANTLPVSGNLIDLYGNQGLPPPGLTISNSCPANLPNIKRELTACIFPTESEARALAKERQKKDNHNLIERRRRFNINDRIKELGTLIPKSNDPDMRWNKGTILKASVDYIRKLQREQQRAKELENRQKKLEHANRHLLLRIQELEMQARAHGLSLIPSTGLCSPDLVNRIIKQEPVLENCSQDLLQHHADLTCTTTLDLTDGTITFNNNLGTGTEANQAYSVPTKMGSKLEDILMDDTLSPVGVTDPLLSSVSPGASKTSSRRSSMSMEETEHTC

[22] = inhibitors of SNCA 5'UTR-driven translation, confirmation, luminescence, H4 neuroglioblastoma cells, dose confirmation (AID 2454); type: functional, cell-based;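 further: H4 neuroglioblastoma cells carrying an alpha-synuclein 5'UTR luciferase reporter; potency for inhibition of the luciferase signal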
[23] = inhibitors of SNCA 5'UTR-driven reporter translation, confirmation, H4 neuroglioma cells, luminescence (AID 1988); type: functional, cell-based
[24] = Luminescence-based counterscreen assay for KLF5 inhibitors: dose response cell-based high throughput screening assay to identify cytotoxic compounds using the IEC-6 intestinal epithelial cell line. [Related pubchem assays: 1700 (Primary screen.), 1834 (Confirmation screen.), 1858 (Summary AID.), 1905 (Counterscreen.)]; type: functional
Paired box protein Pax-8 = Paired box protein Pax-8 (Homo sapiens, UniProt Q06710); assay: inhibitors of PAX8-driven TPO luciferase reporter, dose response, RMG-I cells, cherry-pick (AID 687027); type: functional, cell-based;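 further: luciferase reporter driven by Pax8 target thyroperoxidase promoter measured by SteadyGlo luminescence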
[25] = cytotoxicity in COV362 ovarian cancer cells, dose response, cytotoxicity control for PAX8 inhibitor project, cell-based, plate reader, dry powder, SA12 (AID 743144); type: functional
[26] = PAX2 cell-based inhibition, dose response, selectivity assay for PAX8 inhibitor project, plate reader, dry powder samples (AID 743048); type: functional;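 further: HEK293 cells carrying a WT1 promoter luciferase reporter driven by expressed Pax2; potency is for inhibition of Pax2 driven reporter signal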
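Wherever CC50 is given: cells exposed to compound for 16 hours before readout.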

T2 sequence (Q9NZJ5 whole entry): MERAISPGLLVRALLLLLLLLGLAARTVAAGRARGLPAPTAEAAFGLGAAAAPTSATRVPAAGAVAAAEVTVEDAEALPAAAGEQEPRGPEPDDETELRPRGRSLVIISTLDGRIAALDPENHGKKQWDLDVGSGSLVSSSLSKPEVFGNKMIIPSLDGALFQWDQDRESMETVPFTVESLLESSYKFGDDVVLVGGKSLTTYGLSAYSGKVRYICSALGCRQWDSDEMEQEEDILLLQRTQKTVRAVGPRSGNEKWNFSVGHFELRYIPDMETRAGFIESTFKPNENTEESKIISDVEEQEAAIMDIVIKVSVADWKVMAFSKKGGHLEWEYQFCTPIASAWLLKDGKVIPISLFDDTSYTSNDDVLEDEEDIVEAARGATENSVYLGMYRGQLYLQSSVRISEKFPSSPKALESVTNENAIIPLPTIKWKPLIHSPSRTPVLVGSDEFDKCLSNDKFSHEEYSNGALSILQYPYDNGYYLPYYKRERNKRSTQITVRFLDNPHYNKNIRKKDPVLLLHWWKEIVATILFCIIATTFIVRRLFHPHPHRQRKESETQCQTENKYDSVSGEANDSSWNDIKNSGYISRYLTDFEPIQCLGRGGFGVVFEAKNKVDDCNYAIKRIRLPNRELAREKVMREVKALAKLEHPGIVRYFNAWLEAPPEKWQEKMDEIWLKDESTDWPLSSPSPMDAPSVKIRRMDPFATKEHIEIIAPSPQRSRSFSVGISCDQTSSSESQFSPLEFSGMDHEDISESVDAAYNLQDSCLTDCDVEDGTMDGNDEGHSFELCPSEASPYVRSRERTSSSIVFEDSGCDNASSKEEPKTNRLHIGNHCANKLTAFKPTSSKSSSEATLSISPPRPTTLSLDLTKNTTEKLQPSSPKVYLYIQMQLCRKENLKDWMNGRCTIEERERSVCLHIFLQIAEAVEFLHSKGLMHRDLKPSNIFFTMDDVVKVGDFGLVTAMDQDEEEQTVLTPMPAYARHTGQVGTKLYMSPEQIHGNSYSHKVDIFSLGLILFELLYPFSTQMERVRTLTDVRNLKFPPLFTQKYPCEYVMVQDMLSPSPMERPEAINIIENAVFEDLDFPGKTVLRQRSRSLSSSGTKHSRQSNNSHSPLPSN
Paired box protein Pax-8, sequence (Q06710 whole entry): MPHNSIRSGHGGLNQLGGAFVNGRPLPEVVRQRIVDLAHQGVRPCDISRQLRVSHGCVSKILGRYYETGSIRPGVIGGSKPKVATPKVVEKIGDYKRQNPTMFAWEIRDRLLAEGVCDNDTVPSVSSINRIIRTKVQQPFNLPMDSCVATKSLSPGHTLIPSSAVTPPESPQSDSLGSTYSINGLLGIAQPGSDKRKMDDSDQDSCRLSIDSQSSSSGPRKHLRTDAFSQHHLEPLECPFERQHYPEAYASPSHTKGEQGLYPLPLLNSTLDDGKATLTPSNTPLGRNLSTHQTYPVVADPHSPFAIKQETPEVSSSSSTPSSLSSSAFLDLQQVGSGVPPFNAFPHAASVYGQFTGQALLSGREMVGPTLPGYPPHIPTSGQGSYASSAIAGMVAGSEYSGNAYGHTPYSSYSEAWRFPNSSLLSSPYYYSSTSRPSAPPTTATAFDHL
Polyadenylate-binding protein 1, sequence (P11940 whole entry): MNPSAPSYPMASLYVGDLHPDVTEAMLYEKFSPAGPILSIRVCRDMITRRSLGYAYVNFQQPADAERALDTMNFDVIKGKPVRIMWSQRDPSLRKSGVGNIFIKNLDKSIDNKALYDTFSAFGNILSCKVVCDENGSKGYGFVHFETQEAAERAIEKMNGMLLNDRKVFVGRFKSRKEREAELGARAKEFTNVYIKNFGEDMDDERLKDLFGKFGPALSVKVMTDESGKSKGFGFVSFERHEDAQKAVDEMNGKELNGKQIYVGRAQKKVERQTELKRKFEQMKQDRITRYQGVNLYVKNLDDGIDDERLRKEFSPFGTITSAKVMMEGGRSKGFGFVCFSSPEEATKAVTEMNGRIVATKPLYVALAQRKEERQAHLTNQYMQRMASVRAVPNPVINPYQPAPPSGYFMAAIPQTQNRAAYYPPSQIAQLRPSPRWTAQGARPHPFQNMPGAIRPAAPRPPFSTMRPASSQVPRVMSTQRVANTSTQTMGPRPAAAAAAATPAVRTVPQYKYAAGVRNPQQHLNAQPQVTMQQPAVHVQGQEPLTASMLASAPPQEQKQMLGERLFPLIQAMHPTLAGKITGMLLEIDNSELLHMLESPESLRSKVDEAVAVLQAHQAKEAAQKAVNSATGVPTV
DNA dC->dU-editing enzyme APOBEC-3G, sequence (Q9HC16 whole entry): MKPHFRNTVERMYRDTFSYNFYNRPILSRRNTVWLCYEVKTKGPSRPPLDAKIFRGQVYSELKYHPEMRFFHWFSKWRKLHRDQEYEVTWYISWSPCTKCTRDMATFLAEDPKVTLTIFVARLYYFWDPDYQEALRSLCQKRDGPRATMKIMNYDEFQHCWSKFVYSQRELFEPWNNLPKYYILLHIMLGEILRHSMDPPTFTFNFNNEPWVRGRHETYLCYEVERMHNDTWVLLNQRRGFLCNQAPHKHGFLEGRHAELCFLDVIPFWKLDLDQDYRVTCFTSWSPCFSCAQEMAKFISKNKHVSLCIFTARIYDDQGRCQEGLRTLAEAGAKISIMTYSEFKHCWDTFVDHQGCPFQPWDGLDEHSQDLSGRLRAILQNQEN
Melanocortin receptor 4, sequence (P32245 whole entry): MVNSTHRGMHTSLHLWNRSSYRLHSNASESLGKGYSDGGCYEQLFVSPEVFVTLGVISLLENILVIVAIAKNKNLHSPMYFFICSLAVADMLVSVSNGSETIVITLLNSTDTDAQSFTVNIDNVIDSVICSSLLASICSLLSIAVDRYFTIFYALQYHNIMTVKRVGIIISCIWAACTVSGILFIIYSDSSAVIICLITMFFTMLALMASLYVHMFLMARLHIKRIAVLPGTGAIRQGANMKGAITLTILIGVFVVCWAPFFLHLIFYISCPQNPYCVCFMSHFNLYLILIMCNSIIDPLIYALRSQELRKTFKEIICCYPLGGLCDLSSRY
DNA dC->dU-editing enzyme APOBEC-3A, sequence (P31941 whole entry): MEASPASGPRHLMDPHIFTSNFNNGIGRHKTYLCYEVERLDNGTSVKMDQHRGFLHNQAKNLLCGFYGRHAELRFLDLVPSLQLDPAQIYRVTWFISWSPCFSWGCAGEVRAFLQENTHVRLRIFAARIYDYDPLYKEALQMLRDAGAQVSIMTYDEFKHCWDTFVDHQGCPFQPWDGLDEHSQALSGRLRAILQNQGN

CC(=O)OC(C[N+]1(C)CCCCCC1)c1ccccc1 (configuration not stated)
IC50 [1]: 2.4 µM (active)
IC50 [2]: 9.62 µM (active)
IC50 [3]: > 100 µM (inactive)
IC50 [4]: 2.79 µM (active)

COc1ccc(-c2csc(NC(=O)c3ccc(OCC(=O)N4CCOCC4)c(OC)c3)n2)cc1
AC50 [5]: 18.4 µM (active)
AC50 [6]: > 52 µM (inactive)
AC50 [7]: 43.1 µM (active)
IC50 [8]: 27.5 µM (active)
AC50 [9]: 22.4 µM (active)

COc1cc(C(=O)Nc2nnc(-c3sccc3C)s2)cc(OC)c1OC
EC50 (Estrogen receptor [10]): 13.2 µM (active)
EC50 (Melanocortin receptor 4): > 89.2 µM (inactive)

Cc1nn(C)c(C)c1NC(=O)c1ccc(S(=O)(=O)N(C)C)cc1
CC50 (HeLa): > 99 µM (not active)

Oc1cnnc(N/N=C/c2cccs2)n1
EC50 [11]: > 55.7 µM (not active)
EC50 [12]: > 55.7 µM (not active)

O=C(CCCn1c(=S)[nH]c2ccccc2c1=O)N1CCN(Cc2cccc3ccccc23)CC1
IC50 (Estrogen receptor [13]): 0.17 µM (not active)

Cc1ccccc1OCC(=O)Nc1cccc(C(=O)O)c1
AC50 [5]: 0.669 µM (active)
AC50 [14]: > 100 µM (inactive)
EC50 (cells): 0.725 µM (active)
AC50 [15]: 7.82 µM (active)
AC50 [16]: 0.342 µM (active)
AC50 [17]: 3.76 µM (active)
AC50 [18]: 0.951 µM (active)
AC50 [19]: 1.27 µM (active)
EC50 [20]: 0.541 µM (active)
AC50 [21]: 1.05 µM (active)
EC50 [22]: 0.393 µM (active)
EC50 [23]: < 0.1 µM (active)
IC50 [24]: > 39.8 µM (not active)
AC50 (Paired box protein Pax-8): 2.3 µM (active)
AC50 [25]: > 100 µM (inactive)
AC50 [9]: 1.05 µM (active)
AC50 [26]: 3.61 µM (active)
